A short description of data set [1]: Chromatograms of parotid saliva specimens A, B and C (HPLC with ECD detection). The format is in vivo, human. The settings on record: Supplement N, one tablet every morning and evening for a month (60 mg CoQ10, 20 mg α-tocopherol per day). On the procedure: In pretreatment of the specimens, 20 μl of plasma and 180 μl of ethanol (Wako Pure Chemical Industries, Ltd.: HPLC grade) were added to an autosampler vial (sampler vial PP 250 μl: Shiseido Co., Ltd.) to have a final ethanol concentration of 90% (V/V), which was centrifuged under cooling by 1000 G for 5 minutes to precipitate proteins. In the case of directly collected saliva, 150 μl of ethanol was added to 50 μl of the specimen to have a final ethanol concentration of 75% (V/V), which was centrifuged under cooling by 1000 G for 5 minutes to precipitate proteins. […]
Ubidecarenol, tocopherol, lycopene and β-carotene can be quantitatively analyzed at 600 mV. […] Therefore, CoQ10 is converted into ubidecarenol by reducing the carbonyl group to the OH group using the above-mentioned commercial online reduction column, and then detected in an oxidation mode using the amperometry-type electrochemical detector 3005 (Shiseido Co., Ltd.) or the pulse-type electrochemical detector 3016 (Shiseido Co., Ltd.) under the HPLC condition shown in FIGS. 1 and 2, allowing the bulk detection as shown in FIGS. 3 and 4. […]

Data set [2] is described as follows: Transition of the tocopherol level in parotid saliva on ingestion of supplement S. The format is in vivo, human. The conditions noted are these: two tablets (32.8 mg α-tocopherol) every morning for a week, then two weeks discontinuation, 3 volunteers, FIG. 8. Here is the method: 3 volunteers were made to ingest orally two commercial CoQ10 supplement S containing 32.8 mg of tocopherol per two tablets as α-tocopherol at 7:00 every morning continuously for a week, and as a specimen, parotid saliva was collected from PM 4:00 to 5:00, three times, that is, before ingestion and one week after ingestion and two weeks after discontinuation of ingestion. The volunteer had the mouth rinsed with water, and kept quiet on a chair for 5 minutes, while the volunteer accumulated saliva in the oral cavity and discharged to initialize the oral cavity, followed by collecting saliva. […] The ingestion states of the supplement, that is, before ingestion and one week after ingestion, and two weeks after discontinuation of ingestion are arranged on the horizontal axis as points, and the tocopherol concentrations (hereinafter, the measured concentration of tocopherol will be referred to “tocopherol level”) in parotid saliva are arranged on the vertical axis, and transition of the tocopherol level in parotid saliva depending on states of supplements with tocopherol is shown in FIG. 8.

A short description of data set [3]: Transition of the lycopene and β-carotene levels in parotid saliva on ingestion of lycopene + β-carotene MAX1. The format is in vivo, human. The conditions noted are these: lycopene + β-carotene MAX1, two tablets (20 mg lycopene, 60 mg β-carotene) every morning for a week, then two weeks discontinuation; FIGS. 9 and 10. On the procedure: 2 of 3 volunteers were made to ingest orally two commercial supplement lycopene +β-carotene MAX1 (trade name, Minami Healthy Food Co.) containing 10 mg of lycopene and 30 mg of β-carotene per one tablet (20 mg of lycopene and 60 mg of β-carotene per two tablet) at 7:00 every morning continuously for a week, and as a specimen, parotid saliva was collected from PM 4:00 to 5:00, three times, that is, before ingestion and one week after ingestion and two weeks after discontinuation of ingestion. The volunteer had the mouth rinsed with water, and kept quiet on a chair for 5 minutes, while the volunteer accumulated saliva in the oral cavity and discharged to initialize the oral cavity, followed by collecting saliva. […] The ingestion states of the supplement, that is, before ingestion and one week after ingestion, and two weeks after discontinuation of ingestion, are arranged on the horizontal axis as points, and the concentrations of lycopene and β-carotene (hereinafter, the measured concentrations of lycopene and β-carotene will be referred to “lycopene level” and “β-carotene level” respectively) in parotid saliva are arranged on the vertical axis, and transition of the lycopene and β-carotene levels in parotid saliva depending on ingestion of supplements is shown in FIGS. 9 and 10.

The conditions of data set [4]: cited from earlier work.

Here are results for three compounds from patent US7943382B2, “Method for inspecting fat-soluble vitamin and/or fat-soluble food factor by saliva analysis” (Mitsubishi Chemical Medience Corporation, priority 2004, dated 2011).

In the case of Tocopherol, the “peak in chromatogram of parotid saliva A (supplement-ingesting volunteer) compared with B (non-ingesting volunteer)” value in data set [1] is given as “higher peak”. In data set [2], the “transition of the tocopherol level in parotid saliva” value is “increased by ingestion and decreased by discontinuation of ingestion”.

In the case of `CC(C)=CCC/C(C)=C/C=C/C(C)=C/C=C/C(C)=C/C=C/C=C(C)/C=C/C=C(C)/C=C/C=C(\C)CCC=C(C)C` [lycopene], in data set [3], the “transition of the level in parotid saliva” value was “obviously increased in the two volunteers who ingested the supplement compared with one volunteer without ingestion, and decreased by discontinuation of ingestion”.

Take `CC1=C(/C=C/C(C)=C/C=C/C(C)=C/C=C/C=C(C)/C=C/C=C(C)/C=C/C2=C(C)CCCC2(C)C)C(C)(C)CCC1` [β-carotene]: the “transition of the level in parotid saliva” value in data set [3] was “obviously increased in the two volunteers who ingested the supplement compared with one volunteer without ingestion, and decreased by discontinuation of ingestion”. Further, the “detection in the parotid saliva” value in data set [4] (Nonpatent document No. 1) is on record as “could not be detected”. In addition, the “correlation between the serum level and the whole saliva level” value in data set [4] (Nonpatent documents No. 1 and 2) is on record as “positive correlation”.
